In brackets after ≈: the same amount, converted by molar mass. Several values for one entry are separate records, joined by “and”; a condition that tells them apart may be missing. Identical values can stand only once. Like-named read-outs stand apart in the source and are kept apart here.
Columns and labels:
[1] = target: T1, Staphylococcus aureus MurA (Staphylococcus aureus, UniProt Q931H5); test: biochemical; details: for remaining activity at 100 µM: 10 min
T1 construct: made in house; host or cells: E. coli
T1 sequence (Q931H5 1-421): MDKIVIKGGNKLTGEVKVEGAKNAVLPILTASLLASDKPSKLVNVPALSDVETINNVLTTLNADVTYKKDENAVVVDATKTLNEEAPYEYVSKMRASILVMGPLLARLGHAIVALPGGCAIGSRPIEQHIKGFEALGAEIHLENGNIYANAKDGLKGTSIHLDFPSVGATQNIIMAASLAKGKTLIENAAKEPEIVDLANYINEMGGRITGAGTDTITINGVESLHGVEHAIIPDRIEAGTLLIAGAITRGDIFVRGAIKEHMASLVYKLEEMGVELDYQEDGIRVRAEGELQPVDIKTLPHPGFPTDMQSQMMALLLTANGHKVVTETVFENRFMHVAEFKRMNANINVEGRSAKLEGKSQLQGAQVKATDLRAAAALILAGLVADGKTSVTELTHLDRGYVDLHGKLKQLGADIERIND
Description: (§1) Polymyxin, UDP-GlcNAc, D-Ala-D-Ala, PEP, ATP and Hepes were purchased from Sigma-Aldrich Co. (St Louis, MO, USA). UDP-MurNAc-L-Ala-D-Glu-m-DAP was obtained from BACWAN facility, School of Life Sciences, The University of Warwick, UK. MurA from E. coli and S. aureus were recombinant, expressed in E. coli, while MurF from E. coli and S. aureus were recombinant expressed in E. coli.
MurA inhibition was determined with the colorimetric malachite green method in which the release of orthophosphate generated during the reaction is measured. […] Time-dependent inhibition assays were also performed. MurA was preincubated with substrate UDP-GlcNAc and target compounds for 10 min at 37 °C, and then the reaction was started by the addition of the second substrate PEP, resulting in a mixture with a final volume of 50 µL as above described. MurF was preincubated with compounds for 10 min at 37 °C, and the reaction was started by the addition of the above-mentioned substrates to get a mixture with a final volume of 50 µL, as already described. In both experiments, after incubation for 15 min at 37 °C, the reaction was stopped by adding Biomol® reagent (100 µL, Enzo Life Sciences, Inc., Farmingdale, NY, USA). The absorbance was measured at 650 nm after 5 min in a microplate reader (Synergy H4). The final concentration of DMSO in the reaction mixture was 5% (v/v). Fosfomycin was used as a reference in MurA assay. The percentage of RA was calculated in comparison to negative controls containing only 5% DMSO. […] The results are expressed as mean ± standard error.

E. coli (ATCC 25922) = test: Antibacterial susceptibility testing, MIC by broth microdilution, alone or with polymyxin B; type: cell-based, Escherichia coli; details: for MIC: Escherichia coli, read-out: MIC against E. coli; for MIC against E. coli with polymyxin B: with polymyxin B at sub-inhibitory concentration (half of the MIC, 0.49 µg/mL), permeabilized E. coli
Description: Overnight subcultures of the test organism carried out on plate count agar medium (PCA) were used.
After 24 h incubation at 37 °C with continuous shaking, absorbance was measured with an iMark micro-plate reader (Bio-Rad, Hercules, CA, USA) at 655 nm. Compound 1 was dissolved in DMSO, while compounds 4 and 6 were dissolved in ethanol or acetonitrile (ACN), respectively. Negative controls containing dissolution solvents at a final concentration of 2% or polymyxin B at 0.49 µg/mL were simultaneously carried out, and the growth was compared to the viability control, which contained only a culture medium. […] The large size of this glycopeptide antibiotic avoids its entrance into Gram-negative bacteria, while the addition of polymyxin B overcomes this inconvenience.

Escherichia coli MurA = target: T2, Escherichia coli MurA (Escherichia coli, UniProt P0A749); test: MurA inhibition, colorimetric malachite green method; type: biochemical; details: for remaining activity at 100 µM: 10 min, residual activity at 100 µM, read-out: RA % Escherichia coli MurA
T2 construct: made in house; host or cells: E. coli
T2 sequence (P0A749 whole entry): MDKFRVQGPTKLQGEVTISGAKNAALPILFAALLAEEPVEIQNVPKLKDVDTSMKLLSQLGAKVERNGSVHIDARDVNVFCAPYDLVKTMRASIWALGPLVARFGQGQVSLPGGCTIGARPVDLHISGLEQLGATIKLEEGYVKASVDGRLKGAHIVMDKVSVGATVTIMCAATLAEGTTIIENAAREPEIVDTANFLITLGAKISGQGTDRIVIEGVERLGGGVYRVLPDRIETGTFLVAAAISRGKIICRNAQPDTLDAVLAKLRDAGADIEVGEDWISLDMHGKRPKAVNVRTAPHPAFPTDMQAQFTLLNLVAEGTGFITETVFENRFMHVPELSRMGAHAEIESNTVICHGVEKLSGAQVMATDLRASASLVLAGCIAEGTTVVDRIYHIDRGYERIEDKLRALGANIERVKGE
Description: as §1
MurA inhibition was determined with the colorimetric malachite green method in which the release of orthophosphate generated during the reaction is measured. Briefly, 2.5 µL of each tested compound previously dissolved in DMSO at a concentration of […], were added in duplicate to 50 µL of the reaction mixture containing 50 mM HEPES pH 7.8, 0.005% Triton X-114, 200 µM UDP-GlcNAc, 100 µM PEP and purified MurA (200 nM) diluted in 50 mM Hepes at pH 7.8. The 50 µL reaction mixture for MurF inhibitory assay contained 50 mM Hepes pH 8.0, 50 mM MgCl2, 0.005% Triton X-114, 600 µM D-Ala-D-Ala, 100 µM UDP-MurNAc-L-Ala-D-Glu-m-DAP, 500 µM ATP and purified MurF (8 nM). Time-dependent inhibition assays were also performed. MurA was preincubated with substrate UDP-GlcNAc and target compounds for 10 min at 37 °C, and then the reaction was started by the addition of the second substrate PEP, resulting in a mixture with a final volume of 50 µL as above described. MurF was preincubated with compounds for 10 min at 37 °C, and the reaction was started by the addition of the above-mentioned substrates to get a mixture with a final volume of 50 µL, as already described. In both experiments, after incubation for 15 min at 37 °C, the reaction was stopped by adding Biomol® reagent (100 µL, Enzo Life Sciences, Inc., Farmingdale, NY, USA). The absorbance was measured at 650 nm after 5 min in a microplate reader (Synergy H4). The final concentration of DMSO in the reaction mixture was 5% (v/v). Fosfomycin was used as a reference in MurA assay. The percentage of RA was calculated in comparison to negative controls containing only 5% DMSO. […] The results are expressed as mean ± standard error.

[2] = system: methicillin-sensitive and resistant Staphylococcus aureus (MSSA and MRSA); details: growth curves of treated MSSA and MRSA; cited from earlier work
[3] = time of preincubation: 10 min, read-out: IC50 Staphylococcus aureus MurA (converted)
[4] = ATCC25922, compound alone, 24 h, 37 °C, Mueller–Hinton broth
[5] = time of preincubation: 10 min, read-out: IC50 Escherichia coli MurA (converted)
[6] = IC50 Staphylococcus aureus MurA, time of preincubation: 10 min
[7] = IC50 Escherichia coli MurA, time of preincubation: 10 min
[8] = residual activity at 100 µM, time of preincubation: 10 min, read-out: RA % Staphylococcus aureus MurA

For CC(C)c1cc2c(c(O)c1O)[C@@]13CCCC(C)(C)[C@@H]1C[C@@H]2OC3=O [Compound 1, carnosol], the IC50 ([1]; time of preincubation = 0 min, read-out: IC50 Staphylococcus aureus MurA (converted)) was 61 µM, the IC50 [1, 3] was 1.1 µM and the MIC (E. coli (ATCC 25922); [4]) was greater than 250 µg/mL. For the same compound, the “MIC against E. coli with polymyxin B” value (E. coli (ATCC 25922)) was 125 µg/mL, the IC50 (Escherichia coli MurA; time of preincubation = 0 min, read-out: IC50 Escherichia coli MurA (converted)) was 66 µM and the IC50 (Escherichia coli MurA; [5]) was 2.8 µM.
Compound CC(C)c1cc2c(c(O)c1O)[C@@]13CCCC(C)(C)[C@@H]1[C@H](OC3=O)[C@H]2O [Compound 2, rosmanol] has an IC50 [1, 3] of 5.7 µM and an IC50 (Escherichia coli MurA; [5]) of 12.9 µM.
For CC(C)c1cc2c(c(O)c1O)[C@@]1(C(=O)O)CCCC(C)(C)[C@@H]1CC2 [Compound 3, carnosic acid], the IC50 [1, 6] was 12 µM and 12.3 µM and the IC50 (Escherichia coli MurA; [7]) was 25 µM and 25.1 µM.
For COC(=O)[C@]12CCCC(C)(C)[C@@H]1CCc1cc(C(C)C)c(O)c(O)c12 [Compound 4, 20-methyl carnosate], the remaining activity at 100 µM ([1]; read-out: RA % Staphylococcus aureus MurA, residual activity at 100 µM, time of preincubation: 10 min) was 0 to 28%, the IC50 ([1]; IC50 Staphylococcus aureus MurA, time of preincubation = 0 min) was 67 µM and the IC50 [1, 6] was 3.4 µM. For the same compound, the MIC (E. coli (ATCC 25922); [4]) was greater than 250 µg/mL, the “MIC against E. coli with polymyxin B” value (E. coli (ATCC 25922)) was 3.9 µg/mL and the remaining activity at 100 µM (Escherichia coli MurA; time of preincubation: 10 min) was 0 to 28%. The IC50 (Escherichia coli MurA; IC50 Escherichia coli MurA, time of preincubation = 0 min) was 48 µM and the IC50 (Escherichia coli MurA; [7]) was 2.8 µM.
In the case of CC(C)c1cc2c3c(c1O)OC(=O)[C@@]31CCCC(C)(C)[C@@H]1CC2 [Compound 6, carnosic acid-γ-lactone], the IC50 [1, 3] is reported as 7.9 µM, the MIC (E. coli (ATCC 25922); [4]) is reported as greater than 250 µg/mL and the “MIC against E. coli with polymyxin B” value (E. coli (ATCC 25922)) is reported as 125 µg/mL. For the same compound, the IC50 (Escherichia coli MurA; [7]) was 4.8 µM.
CC(C)c1cc2c(cc1O)[C@@]1(C)CCC[C@@](C)(C(=O)O)[C@@H]1CC2 [Compound 9, 12-hydroxy-dehydroabietic acid] gave an IC50 [1, 6] of 55.2 µM and an IC50 (Escherichia coli MurA; [5]) of 49.4 µM.
For COC(=O)[C@]1(C)CCC[C@]2(C)c3cc(O)c(/C(C)=N/O)cc3CC[C@@H]12 [Compound 12], the remaining activity at 100 µM [1, 8] is given as 72 to 100% and the “delay/reduction in the growth rate of MSSA and MRSA, until time” value [2] is given as “up to 6 h”.
With CC/C(=N\O)c1cc2c(cc1O)[C@@]1(C)CCC[C@@](C)(C(=O)OC)[C@@H]1CC2 [Compound 13] the remaining activity at 100 µM [1, 8] was 72 to 100%.
COC(=O)[C@]1(C)CCC[C@]2(C)c3cc(O)c(/C(C)=N/O)cc3/C(=N/O)C[C@@H]12 [Compound 14] gave a remaining activity at 100 µM [1, 8] of 72 to 100%.
With CN[C@H](CC(C)C)C(=O)N[C@H]1C(=O)N[C@@H](CC(N)=O)C(=O)N[C@H]2C(=O)N[C@H]3C(=O)N[C@H](C(=O)N[C@H](C(=O)O)c4cc(O)cc(O)c4-c4cc3ccc4O)[C@H](O)c3ccc(c(Cl)c3)Oc3cc2cc(c3O[C@@H]2O[C@H](CO)[C@@H](O)[C@H](O)[C@H]2O[C@H]2C[C@](C)(N)[C@H](O)[C@H](C)O2)Oc2ccc(cc2Cl)[C@H]1O [Vancomycin, vancomycin, reference compound] the MIC (E. coli (ATCC 25922); ATCC25922, 24 h) was 250 µg/mL (≈ 173 µM) and the “MIC against E. coli with polymyxin B” value (E. coli (ATCC 25922)) was 62.5 µg/mL.
Work on C[C@@H]1O[C@@H]1P(=O)(O)O [fosfomycin, reference compound] yielded a remaining activity at 100 µM [1, 8] of 0%, an IC50 [1, 3] of 0.3 µM and a remaining activity at 100 µM (Escherichia coli MurA; time of preincubation: 10 min) of 0%. It also gave an IC50 (Escherichia coli MurA; [7]) of 0.21 µM.

— article PMC8698320, “Inhibition of MurA Enzyme from Escherichia coli and Staphylococcus aureus by Diterpenes from Lepechinia meyenii and Their Synthetic Analogs” (Antibiotics, 2021)
